In US20230031406A1, “COMPOUNDS AND COMPOSITIONS FOR TREATING CONDITIONS ASSOCIATED WITH NLRP ACTIVITY” (Novartis AG, priority 2018, published 2023) one finds IC50 data, which are given here for 24 molecules.

The subject of the assay is PMA-differentiated THP-1 cells. The assay can be described thus: IL-1β production in PMA-differentiated THP-1 cells stimulated with gramicidin (hTHP-1 assay containing 2% fetal bovine serum; Procedures 1 and 2). Type of assay: cell-based, human. The settings on record: 2% fetal bovine serum. In short, it runs like this:
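Secreted IL-1β, read by HTRF, after gramicidin challenge (5 μM, 2 h) of THP-1 cells differentiated with PMA (20 ng/ml, 16-18 h) and plated at 50,000 cells/well in 2% FBS medium. Compounds, 0.0017-100 μM final with 0.37% DMSO, were added 1 h before stimulation.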

[1] abbreviates: Homo sapiens, THP-1, Table B2, class symbols, read-out: hTHP-1 IC50.
Setting [2] is: Table B4, class symbols, read-out: hTHP-1 IC50.
Setting [3] is: Table B1, class symbols, read-out: Average IC50 of compounds in hTHP-1 assay: hTHP-1 IC50.
The mark [4] stands for this setting: Homo sapiens, THP-1, Table B3, hTHP-1 assay, class symbols, read-out: IC50.
Setting [5] is: Homo sapiens, THP-1, Table B1, numeric bounds, read-out: Average IC50 of compounds in hTHP-1 assay: hTHP-1 IC50.
Setting [6] is: Table B2, class symbols, read-out: hTHP-1 IC50.
[7] abbreviates: Homo sapiens, THP-1, Table B2, numeric bounds, read-out: hTHP-1 IC50.

Where two headings read alike, the source gives them in different places.

`CCc1c(C(F)(F)F)nc2c(c1NC(=O)N=S(N)(=O)c1sc(C(C)(C)O)cc1F)CCC2` (stereo not drawn) [Compound 611, N′-((3-ethyl-2-(trifluoromethyl)-6,7-dihydro-5H-cyclopenta[b]pyridin-4-yl)carbamoyl)-3-fluoro-5-(2-hydroxypropan-2-yl)thiophene-2-sulfonimidamide]: the concentration for half-maximal inhibition (IC50) under setting [1] fell in the range of 200 to 1000 nM.

In the case of `Cc1c(C(F)(F)F)nc2c(c1NC(=O)N=S(N)(=O)c1nn(-c3ccccc3)cc1F)CCC2` (single isomer, unassigned) [Example 783, (R) or (S)-4-fluoro-N′-((3-methyl-2-(trifluoromethyl)-6,7-dihydro-5H-cyclopenta [b]pyridin-4-yl)carbamoyl)-1-phenyl-1H-pyrazole-3-sulfonimidamide], the IC50 under setting [2] lay within 1000 to 5000 nM.

Turning to `CC(C)n1ccc(S(N)(=O)=NC(=O)Nc2c3c(nc4c2CCC42CC2)CCC3)n1` (stereo not drawn) [Compound 172, 1-isopropyl-N′-((1′,5′,6′,7′-tetrahydro-2′H-spiro[cyclopropane-1,3′-dicyclopenta[b,e]pyridin]-8′-yl)carbamoyl)-1H-pyrazole-3-sulfonimidamide], the IC50 (Homo sapiens, THP-1, Table B1, class symbols, read-out: Average IC50 of compounds in hTHP-1 assay: hTHP-1 IC50) fell in the range of 200 to 1000 nM.

As to `Cc1sc(S(N)(=O)=NC(=O)Nc2c3c(nc4c2CCC4(C)C)CCC3)cc1C(C)(C)O` (single isomer, unassigned) [Compound 169b, (R) or (S)-N′-((3,3-dimethyl-1,2,3,5,6,7-hexahydro-dicyclopenta[b,e]pyridin-8-yl)carbamoyl)-4-(2-hydroxypropan-2-yl)-5-mehtylthiophene-2-sulfonimidamide], the concentration for half-maximal inhibition (IC50) under setting [3] lay in the range of 40 to 200 nM.

With `C[C@](O)(CO)c1cc(F)c([S@](N)(=O)=NC(=O)Nc2c3c(nc4c2CCC42CC2)CCC3)s1` [Example 678, (R)-5-((S)-1,2-dihydroxypropan-2-yl)-3-fluoro-N′-((1′,5′,6′,7′-tetrahydro-2′H-spiro[cyclopropane-1,3′-dicyclopenta[b,e]pyridin]-8′-yl)carbamoyl)thiophene-2-sulfonimidamide], the IC50 under setting [4] lay within 8 to 40 nM.

`CC(C)(O)c1ccc(S(N)(=O)=NC(=O)Nc2c3c(nc4c2CCC4)CCC3)cn1` (stereo not drawn) [Compound 156, N′-((1,2,3,5,6,7-hexahydrodicyclopenta[b,e]pyridin-8-yl)carbamoyl)-6-(2-hydroxypropan-2-yl)pyridine-3-sulfonimidamide]: the IC50 under setting [5] is more than 30000 nM.

`CC1(C)CCc2c1nc1c(c2NC(=O)N=S(N)(=O)c2sc([C@@](C)(O)CO)nc2CO)CCC1` (stereo partly drawn) [Example 599, 2-((S)-1,2-dihydroxypropan-2-yl)-N′-((3,3-dimethyl-1,2,3,5,6,7-hexahydrodicyclopenta[b,e]pyridin-8-yl)carbamoyl)-4-(hydroxymethyl)thiazole-5-sulfonimidamide]: under setting [4], the IC50 is 1000 to 5000 nM.

In the case of `NS(=O)(=NC(=O)Nc1c2c(nc(C(F)(F)F)c1-c1ccccc1)CCC2)c1nn(C(F)F)cc1F` (single isomer, unassigned) [Example 765, (R) or (S)-1-(difluoromethyl)-4-fluoro-N′-((3-phenyl-2-(trifluoromethyl)-6,7-dihydro-5H-cyclopenta [b]pyridin-4-yl)carbamoyl)-1H-pyrazole-3-sulfonimidamide], the IC50 under setting [2] lay within 8 to 40 nM.

On to `CCc1nc2c(c(NC(=O)N=S(N)(=O)c3sc(C(C)(C)O)cc3F)c1C1CC1)CCC2` (single isomer, unassigned) [Compound 631b, (R) or (S)-N′-((3-cyclopropyl-2-ethyl-6,7-dihydro-5H-cyclopenta[b]pyridin-4-yl)carbamoyl)-3-fluoro-5-(2-hydroxypropan-2-yl)thiophene-2-sulfonimidamide], for which the IC50 under setting [6] was in the range of 40 to 200 nM.

For `Cc1c(C(F)(F)F)nc2c(c1NC(=O)N=S(N)(=O)c1cnc(C(C)(O)CO)s1)CCC2` (stereo not drawn) [Compound 605, 2-(1,2-Dihydroxypropan-2-yl)-N′-((3-methyl-2-(trifluoromethyl)-6,7-dihydro-5H-cyclopenta[b]pyridin-4-yl)cabamoyl)thiazole-5-sulfonimidamide], the IC50 under setting [6] fell in the range of 200 to 1000 nM.

As for `CO[C@H]1COc2c(S(N)(=O)=NC(=O)Nc3c(C)c(C(F)(F)F)nc4c3CCC4)cnn2C1` (single isomer, unassigned) [Example 656, (R) or (S)-(6R)-6-methoxy-N′-((3-methyl-2-(trifluoromethyl)-6,7-dihydro-5H-cyclopenta[b]pyridin-4-yl)carbamoyl)-6,7-dihydro-5H-pyrazolo[5,1-b][1,3] oxazine-3-sulfonimidamide], the half-inhibitory concentration (IC50) under setting [4] was 1000 to 5000 nM.

In the case of `CC(C)(O)c1nc(CCO)c(S(N)(=O)=NC(=O)Nc2c3c(nc4c2CCC4)CCC3)s1` (single isomer, unassigned) [Compound 118b, (S) or (R)-N′-((1,2,3,5,6,7-hexahydrodicyclo-penta[b,e]pyridin-8-yl)carbamoyl)-4-(2-hydroxyethyl)-2-(2-hydroxypropan-2-yl)thiazole-5-sulfonimidamide], under setting [5], the IC50 was more than 24000 nM.

Consider `CCc1c(C(F)(F)F)nc2c(c1NC(=O)N=S(N)(=O)c1cc(C(C)(C)O)cs1)CCC2` (single isomer, unassigned) [Compound 698b, (R) or (S)-N′-((3-ethyl-2-(trifluoromethyl)-6,7-dihydro-5H-cyclopenta[b]pyridin-4-yl)carbamoyl)-4-(2-hydroxypropan-2-yl)thiophene-2-sulfonimidamide], for which the IC50 under setting [6] lay in the range of 200 to 1000 nM.

As for `CC1(C)CCc2c1nc1c(c2NC(=O)N=S(N)(=O)c2cnc(C(C)(O)CO)s2)CCC1` (single isomer, unassigned) [Compound 201d, (R, S) or (S, S) or (S, R) or (R, R)-2-(1.2-Dihydroxypropan-2-yl)-N′-((3,3-dimethyl-1,2,3,5,6.7-hexahydrodicyclopenta [b,e]pvridin-8-yl)carbamoyl)thiazole-5-sulfonimidamide], the IC50 under setting [6] lay within 5000 to 30000 nM.

Take `C[C@](O)(CO)c1cc(F)c(S(N)(=O)=NC(=O)Nc2c3c(nc4c2CCC42CC2)CCC3)s1` (stereo partly drawn) [Example 608, 5-((S)-1,2-dihydroxypropan-2-yl)-3-fluoro-N′-((1′,5′,6′,7′-tetrahydro-2′H-spiro[cyclopropane-1,3′-dicyclopenta[b,e]pyridin]-8′-yl)carbamoyl)thiophene-2-sulfonimidamide]: the IC50 under setting [4] was 40 to 200 nM.

For `CC(C)(O)c1ncc(S(N)(=O)=NC(=O)Nc2c3c(nc4c2CCC4)CCCC3)s1` (single isomer, unassigned) [Compound 161a, (S) or (R)-N′-((2,3,5,6,7,8-hexahydro-1H-cyclopenta[b]quinolin-9-yl)carbamoyl)-2-(2-hydroxypropan-2-yl)thiazole-5-sulfonimidamide], under setting [3], the IC50 fell in the range of 5000 to 30000 nM.

For `CCC1CCc2c1nc1c(c2NC(=O)N=S(N)(=O)c2ccn(C(F)F)n2)CCC1` (single isomer, unassigned) [Compound 668a, (S, S) or (S, R) or (R, S) or (R, R)-1-(Difluoromethyl)-N′-((3-ethyl-1,2,3,5,6,7-hexahydrodicyclopenta [b,e]pyridin-8-yl)carbamoyl)-1H-pyrazole-3-sulfonimidamide], under setting [7], the IC50 is more than 30000 nM.

Turning to `C[C@@H]1CCc2c1nc1c(c2NC(=O)N=S(N)(=O)c2nn(-c3ccccc3)cc2F)CCC1` (stereo partly drawn) [Example 748, 4-Fluoro-N′-(((R)-3-methyl-1,2,3,5,6,7-hexahydrodicyclopenta [b, e]pyridin-8-yl)carbamoyl)-1-phenyl-1H-pyrazole-3-sulfonimidamide], the IC50 (Homo sapiens, THP-1, Table B4, class symbols, read-out: hTHP-1 IC50) lay within 200 to 1000 nM.

As for `CC(C)(O)c1cnc(S(N)(=O)=NC(=O)Nc2c3c(nc4c2CCC4O)CCC3)s1` (stereo not drawn) [Compound 710], the IC50 under setting [7] was more than 30000 nM.

`C[C@@H]1CCc2c1nc1c(c2NC(=O)N=S(N)(=O)c2ccn(C)n2)CCC1` (single isomer, unassigned) [Compound 639b, (R) or (S)-1-Methyl-N′-(((R)-3-methyl-1,2,3,5,6,7-hexahydrodicyclopenta [b,e]pyridin-8-yl)carbamoyl)-1H-pyrazole-3-sulfonimidamide]: the IC50 under setting [1] lay in the range of 200 to 1000 nM.

Turning to `Cc1c(C2CC2)nc2c(c1NC(=O)N=S(N)(=O)c1nc(C(C)(C)O)cs1)CCC2` (stereo not drawn) [Compound 626, N′-((2-cyclopropyl-3-methyl-6,7-dihydro-5H-cyclopenta[b]pyridin-4-yl)carbamoyl)-4-(2-hydroxypropan-2-yl)thiazole-2-sulfonimidamide], under setting [1], the IC50 lay within 40 to 200 nM.

`Cc1nc(C)c(C)c(NC(=O)N=S(N)(=O)c2cnc(C(C)(C)O)s2)c1C` (single isomer, unassigned) [Compound 133a, (R) or (S)-2-(2-hydroxypropan-2-yl)-N′-((2,3,5,6-tetramethylpyridin-4-yl)carbamoyl)thiazole-5-sulfonimidamide]: the IC50 under setting [5] is more than 30000 nM.

Take `CCn1cc(F)c(S(N)(=O)=NC(=O)Nc2c3c(nc4c2CC[C@@H]4C)CCC3)n1` (single isomer, unassigned) [Example 711, (R) or (S)-1-ethyl-4-fluoro-N′-(((S)-3-methyl-1,2,3,5,6,7-hexahydrodicyclopenta[b,e]pyridin-8-yl)carbamoyl)-1H-pyrazole-3-sulfonimidamide]: the IC50 (Table B3, hTHP-1 assay, class symbols, read-out: IC50) is 40 to 200 nM.

As to `CC(O)c1nc(C(C)(C)O)sc1S(=N)(=O)NC(=O)Nc1c2c(nc3c1CCC3)CCC2` (stereo not drawn) [Compound 643, N-((1,2,3,5,6,7-hexahydrodicyclopenta[b,e]pyridin-8-yl)carbamoyl)-4-(1-hydroxyethyl)-2-(2-hydroxypropan-2-yl)thiazole-5-sulfonimidamide], under setting [6], the IC50 was in the range of 5000 to 30000 nM.

One may read the IC50 as the concentration that inhibits the measured activity by half.
